One series has as its system NH3. In words: RT-PCR / real-time qPCR of NH3 after foliar spray. Format: in vivo, Oryza sativa L. An excerpt:
(§1) To investigate the BTH- and INA-induced responses at the molecular level, we looked at the transcript expression levels of several rice defense-related genes, including PR1a, PR3, PR10, POX (peroxidase), and NH1. RT-PCR results of these genes for response to BTH treatment are shown in FIG. 5a and real-time quantitative PCR results in FIG. 5b. The input cDNA amounts were equalized first by using actin as the reference in FIG. 5a. Quantitative expression data in FIG. 5b are expressed as fold of actin gene expression. As expected, the NH3 levels in the nNT-NH3 plants (filled bar) are elevated by about 3- to 4-fold compared to Kit (open bar) control before treatment. […] Mock treatment appears also has effects on the NH3 levels.
(§2) For 10 mM BTH treatment, the commercial product Actigard (Syngenta) was first used for foliar spray on the rice plants. Pure BTH chemical […] (Wako) was subsequently used in place of Actigard. One mM of BTH and INA solutions were prepared in 0.05% Tween 20 for foliar spray.
(§3) Leaf samples were collected and frozen immediately in liquid nitrogen. Leaf samples were stored at −80° C. until use. Total RNA was extracted using the Trizol reagent (Sigma) according to the manufacturer's instruction. RNA was reverse-transcribed using reverse transcriptase Superscript (Invitrogen). Approximately 10 μg of RNA was used for each reverse transcription. RT-PCR was first performed with primers targeting an actin gene as the reference. An equal amount of cDNA input was then used for RT-PCR for NH3 or defense-related genes. RT-PCR for NH3 used primers NH3-RT1 (5′[…]3′; SEQ ID NO:29) and NH3-RT2 (5′[…]3; SEQ ID NO:30). RT-PCR for NTAP-NH3 used primers NH3-2 (5′[…]3; SEQ ID NO:31) and NTAP-5 (5′[…]3; SEQ ID NO:32). RT-PCR for NH1 used primers NH1-RT1 (5′[…]3; SEQ ID NO:33) and NH1-TAP2 (5′[…]3; SEQ ID NO:34). Genes PR1a (Os07g03710) and PR10 (Os12g36830) as markers for plants defense have been described before (Park et al., 2008).
(§4) Quantitative real time PCR were performed on a Bio-Rad CFX96 Real-Time System coupled to a C1000 Thermal Cycler (Bio-Rad). […]
A general note: Quantitative PCR measures a nucleic acid by following its amplification.

The test system of a further series is NH1. As to the kind of experiment: RT-PCR / real-time qPCR of NH1 after foliar spray. Format: in vivo, Oryza sativa L. As to conditions: 1 mM BTH.
Description: as §1, §2, §3, §4

Another series concerns PR10. As to the kind of experiment: RT-PCR / real-time qPCR of PR10 after foliar spray. In kind it is in vivo, Oryza sativa L.
Description: as §1, §2, §3
Quantitative real time PCR were performed on a Bio-Rad CFX96 Real-Time System coupled to a C1000 Thermal Cycler (Bio-Rad). For qPCR reactions, the Bio-Rad SsoFast EvaGreen Supermix was used. QPCR primers used are as follows: Actin-Q1 ([…]; SEQ ID NO:35) and Actin-Q2 ([…]; SEQ ID NO:36) for actin gene; NH1-RT3 (CTGATCCGTTTCCCTCGGA; SEQ ID NO:37) and NH1-RT4 ([…]; SEQ ID NO:38) for the NH1 gene; NH3-RT3 ([…]; SEQ ID NO:39) and NH3-RT4 ([…]; SEQ ID NO:40) for the NH3 gene; PR3-1 ([…]; SEQ ID NO:41) and PR3-2 ([…]; SEQ ID NO:42) for the PR3 gene; POX8.1-1 ([…]; SEQ ID NO:43) and POX8.1-2 (CATGGGCTTCCTGATCTG; SEQ ID NO:44) for the POX8.1 gene; and POX22.3-1 (ATCGTGTCGACGACGACAT; SEQ ID NO:45) and POX22.3-2 ([…]; SEQ ID NO:46) for the POX22.3 gene. QPCR reactions were run at 56° C. annealing for 12 sec and 95° C. for 8 sec for 40 cycles.

For a further series, the system named is PR3. In words: RT-PCR / real-time qPCR of PR3 after foliar spray. In kind it is in vivo, Oryza sativa L. The conditions noted are these: for PR3 expression induction: 1 mM BTH.
Description: as §1, §2, §3, §4

Series [1] concerns peroxidase genes POX8.1 and POX22.3. As to the kind of experiment: RT-PCR / real-time qPCR of peroxidase genes after foliar spray. In kind it is in vivo, Oryza sativa L.
Description: as §1, §2, §3, §4

Series [2] concerns rice plants (nNT-NH3, NTAP control, Kit). The conditions noted are these: for lesion mimic spots / bleached areas on leaves: 1 mM foliar spray, one week.
In a further series the test system is PR1a. As to the kind of experiment: RT-PCR / real-time qPCR of PR1a after foliar spray. The conditions noted are these: 1 mM INA, Kit plants. In kind it is in vivo, Oryza sativa L.
Description: as §1, §2
Leaf samples were collected and frozen immediately in liquid nitrogen. Leaf samples were stored at −80° C. until use. Total RNA was extracted using the Trizol reagent (Sigma) according to the manufacturer's instruction. […]
as §4

[3] abbreviates: 1 mM BTH, both Kit and nNT-NH3 plants.

Read-outs that look alike come from different tables or passages of the source.

`c1ccc2snnc2c1` [BTH, benzothiadiazole]: the NH3 transcript levels entry in the series with NH3 (1 mM BTH, Kit control plants, especially day 4 and day 8) was “slightly reduced”. For the same compound, the NH3 levels entry in the series with NH3 (1 mM BTH, nNT-NH3 plants) is listed as “further modestly induced at day 1”. Also, the NH1 expression levels result in the series on NH1 (Kit plants) is given as “relatively unchanged”. In addition, the “NH1 level induction compared to untreated Kit” value in the series with NH1 (nNT-NH3 plants, one day after treatment) was 2 fold. Moreover, the NH1 level induction entry in the series with NH1 (nNT-NH3 plants, one day after treatment, vs untreated nNT-NH3) was “about 3.5 fold”. For the same compound, the PR10 expression induction entry in the series with PR10 (1 mM BTH, Kit plants) is “up to 2 fold”. In addition, in the series on PR10 (1 mM BTH, nNT-NH3 plants), the “PR10 expression induction over untreated Kit” value is at most 12 fold and the “PR10 expression induction over untreated nNT-NH3” value was “up to 51 fold”. Besides, in the series with PR3 (Kit plants), the PR3 expression induction result is reported as “up to 2 fold”. The PR3 expression induction entry with PR3 (nNT-NH3 plants) is listed as “up to 10 fold”. Also, in series [1] (setting [3]), the POX8.1 expression entry is “significantly induces” and the POX22.3 expression result is given as “significantly induces”. For the same compound, in series [2] (Kit control plants), the “lesion mimic spots / bleached areas on leaves” value is “developed no lesion mimic spots at all”. For the same compound, the cell death phenotype entry in series [2] (10 mM foliar spray, NTAP control plants (Ubi-1 promoter)) is “completely clear of such cell death phenotype”. Further, in series [2] (10 mM foliar spray, nNT-NH3 plants), the “time to dry-out of whole leaves” value is 3 to 4 days.

`O=C(O)c1cc(Cl)nc(Cl)c1` [INA, 2,6-dichloroisonicotinic acid]: the “levels of NH3 expression” value in the series with NH3 (1 mM INA) is “slightly reduces”. Moreover, the PR1a expression result in the series with PR1a is listed as “slightly induces”. In addition, in the series on PR10 (1 mM INA, Kit plants), the PR10 expression entry is given as “slightly induces”. Besides, the PR3 expression result in the series on PR3 (1 mM INA, Kit plants) was “slightly induces”. In series [1] (1 mM INA, Kit and nNT-NH3 plants), the POX expression entry was “induces”. For the same compound, the “lesion mimic spots / bleached areas on leaves” value in series [2] (Kit control plants) was “little effects”; in series [2] (nNT-NH3 plants) it was “developed typical lesion-mimic spots, but no bleached areas on leaves”.

For the origin of these results see patent publication US20130152227A1, “ENHANCED DISEASE […] INTRODUCTION OF NH3” (priority 2010, published 2013).
